As a reminder, the IC50 is the concentration that inhibits the measured activity by half.

The target in the assay is Aldo-keto reductase family 1 member B1 (Homo sapiens, UniProt P15121). Put plainly: Inhibition of human muscle recombinant aldose reductase by spectrophotometry. Also noted: species or system Muscle tissue.

As for `Cc1c(Br)c(O)c(O)c(Br)c1Br`, the IC50 is 3190 nM. For `O=Cc1c(Br)c(O)c(O)c(Br)c1Br` the value was 667 nM. For `Oc1c(O)c(Br)c(Cc2c(Br)c(O)c(O)c(Br)c2Br)c(Br)c1Br` the value was 567 nM; for `Oc1cc(Br)c(COCc2c(Br)c(O)c(O)c(Br)c2Br)c(Br)c1O`, 167 nM; for `Oc1c(Br)cc(Cc2c(Br)c(O)c(O)c(Br)c2Br)c(Br)c1O`, 638 nM.

The values above are taken from ChEMBL document CHEMBL1158746, “Structures and aldose reductase inhibitory effects of bromophenols from the red alga Symphyocladia latiuscula” (J Nat Prod, 2005).
